The values that follow come from patent US8507509B2, “Saturated and insaturated bi- or tricyclic aryloxyacetamine derivatives and their use as fungicides” (Syngenta Crop Protection LLC, priority 2007, dated 2013).

The structures appear in SMILES notation.

For one data set, the system named is Plasmopara viticola. Briefly: Plasmopara viticola (downy mildew of grapevine), grapevine leaf disk assay, preventive. The format is in vivo. As to conditions: foliar, 168 h, 200 ppm, grapevine leaf disks, assessed seven days after inoculation, read-out: control of fungal infection, Plasmopara viticola.
Another data set has as its system Phytophthora infestans. As to the kind of experiment: whole plant or invertebrate. As to conditions: in Solanum lycopersicum, foliar, 96 h, read-out: control of fungal infection, Phytophthora infestans. The format is in vivo.
Another data set relates to Pyricularia oryzae. Briefly: whole plant or invertebrate. The format is in vivo. As to conditions: foliar, 96 h, read-out: control of fungal infection, Pyricularia oryzae.
The test system of the next data set is Septoria nodorum. As to the kind of experiment: Septoria nodorum (wheat glume blotch), wheat leaf segment assay, preventive. The format is in vivo. As to conditions: Parastagonospora nodorum, foliar, 96 h; 200 ppm; wheat leaf segments; assessed four days after inoculation; read-out: control of fungal infection, Septoria nodorum.
In another data set the test system is Septoria tritici. As to the kind of experiment: Septoria tritici (leaf blotch), liquid culture growth inhibition in nutrient broth. It counts as cell-based. The note with it: Zymoseptoria tritici; 200 ppm; PDB broth, 24 C; inhibition of growth determined photometrically after 72 hrs; read-out: control of fungal infection, Septoria tritici.
The next data set has as its system Pythium ultimum. Briefly: Pythium ultimum (Damping off), liquid culture growth inhibition in potato dextrose broth. The note with it: Globisporangium ultimum; 20 ppm; potato dextrose broth, 24° C.; inhibition of growth determined photometrically after 48 hours; read-out: control of fungal infection, Pythium ultimum. The format is cell-based.
For data set [1], the system named is Erysiphe graminis f.sp. tritici. Briefly: Erysiphe graminis f.sp. tritici (wheat powdery mildew), wheat leaf segment assay, preventive. It counts as in vivo. As to conditions: Blumeria graminis, foliar, 96 h; 200 ppm; wheat leaf segments; assessed four days after inoculation; read-out: control of fungal infection, Etysiphe graminis f.sp. tritici.
A further data set deals with Fusarium culmorum. Briefly: Fusarium culmorum (root rot), liquid culture growth inhibition in nutrient broth. It counts as cell-based. The note with it: PDB broth, 24 C, inhibition of growth determined photometrically after 48 hrs, read-out: control of fungal infection, Fusarium culmorum. In a few lines:
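Fusarium culmorum conidia from cryogenic storage were mixed into potato dextrose broth and added to compound pre-dispensed from DMSO (diluted in 0.025% Tween20). Incubated at 24 C in the dark; growth inhibition read photometrically after 48 hrs.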

In a further data set the test system is Botrytis cinerea. Briefly: Botrytis cinerea (grey mould), bean leaf disk assay, preventive. The format is in vivo. As to conditions: foliar, 96 h, 200 ppm, bean leaf disks, assessed four days after inoculation, read-out: control of fungal infection, Botrytis cinerea.
Data set [2] deals with Puccinia recondita f.sp. tritici. As to the kind of experiment: Puccinia recondita f.sp. tritici (wheat brown rust), wheat leaf segment assay, preventive. The format is in vivo. The note with it: foliar, 216 h, 200 ppm, wheat leaf segments, assessed nine days after inoculation, read-out: control of fungal infection, Puccinia recondite f.sp. tritici.

On to `C#Cc1cnc2c(Cl)cc(OC(SC)C(=O)NC(C)(C)C=NOCC)cc2c1` (stereo not shown) [Compound No. 116, 2-(8-Chloro-3-ethynyl-quinolin-6-yloxy)-N-(2-ethoxyimino-1,1-dimethyl-ethyl)-2-methylsulfanyl-acetamide], for which the pest or weed control at 200 ppm with Plasmopara viticola, in the data set on Phytophthora infestans, with Pyricularia oryzae and in the data set with Septoria nodorum was at least 60% throughout. Also, in the data set with Septoria tritici, the inhibition of growth at 200 ppm is at least 60%. Also, the inhibition of growth at 20 ppm in the data set on Pythium ultimum is at least 60%.

`CSC(Oc1cc(C)c2ncc(Br)cc2c1)C(=O)NC(C)(C)C=NO` (stereo not shown) [Compound No. 31, 2-(3-Bromo-8-methyl-quinolin-6-yloxy)-N-(2-hydroxyimino-1,1-dimethyl-ethyl)-2-methylsulfanyl-acetamide]: the pest or weed control at 200 ppm (in the data set on Plasmopara viticola; in the data set with Phytophthora infestans; in [1]; in the data set with Pyricularia oryzae) was at least 60% each time. Besides, the inhibition of growth at 200 ppm in the data set on Fusarium culmorum is at least 60%. Besides, in the data set on Pythium ultimum, the inhibition of growth at 20 ppm is at least 60%.

For `CCON=CC(C)(C)NC(=O)C(Oc1ccc2ncc(Br)cc2c1)SC` (stereo not shown) [Compound No. 16, 2-(3-Bromo-quinolin-6-yloxy)-N-(2-ethoxyimino-1,1-dimethyl-ethyl)-2-methylsulfanyl-acetamide], the pest or weed control at 200 ppm (in the data set with Phytophthora infestans; in [1]; with Pyricularia oryzae) was at least 60% throughout. Moreover, the inhibition of growth at 20 ppm in the data set with Pythium ultimum is at least 60%.

As for `CCON=CC(C)(C)NC(=O)C(Oc1cc(C)c2ncc(Br)cc2c1)SC` (stereo not shown) [Compound No. 27, 2-(3-bromo-8-methyl-quinolin-6-yloxy)-N-(2-ethoxyimino-1,1-dimethyl-ethyl)-2-methylsulfanyl-acetamide], the pest or weed control at 200 ppm in the data set with Phytophthora infestans and in the data set on Pyricularia oryzae was at least 60% in each case. Moreover, the inhibition of growth at 200 ppm in the data set on Septoria tritici was at least 60%.

With `C=CCON=CC(C)(C)NC(=O)C(Oc1cc(C)c2ncc(I)cc2c1)SC` (stereo not shown) [Compound No. 45, N-(2-Allyloxyimino-1,1-dimethyl-ethyl)-2-(3-iodo-8-methyl-quinolin-6-yloxy)-2-methylsulfanyl-acetamide], the pest or weed control at 200 ppm (in the data set on Plasmopara viticola; in the data set on Phytophthora infestans; in data set [1]; in the data set on Pyricularia oryzae; in the data set on Septoria nodorum) was at least 60% throughout. Besides, the inhibition of growth at 200 ppm in the data set on Septoria tritici is at least 60%.

As for `CON=CC(C)(C)NC(=O)C(Oc1ccc2ncc(Br)cc2c1)SC` (stereo not shown) [Compound No. 15, 2-(3-Bromo-quinolin-6-yloxy)-N-(2-methoxyimino-1,1-dimethyl-ethyl)-2-methylsulfanyl-acetamide], the pest or weed control at 200 ppm (in the data set with Plasmopara viticola; with Phytophthora infestans; in data set [1]; with Pyricularia oryzae) was at least 60% throughout. Further, in the data set on Septoria tritici, the inhibition of growth at 200 ppm was at least 60%. Further, the inhibition of growth at 20 ppm in the data set with Pythium ultimum was at least 60%.

The molecule `CON=CC(C)(C)NC(=O)C(OC)Oc1cc(C)c2ncc(I)cc2c1` (stereo not shown) [Compound No. 73, 2-(3-Iodo-8-methyl-quinolin-6-yloxy)-2-methoxy-N-(2-methoxyimino-1,1-dimethyl-ethyl)-acetamide] yielded a melting point of 126 to 128 °C. The pest or weed control at 200 ppm in the data set on Plasmopara viticola is at least 60%. Further, in [1], the pest or weed control at 200 ppm was at least 60%. In addition, the pest or weed control at 200 ppm in the data set on Botrytis cinerea was at least 60%. In [2], the pest or weed control at 200 ppm is at least 60%. Moreover, in the data set with Septoria nodorum, the pest or weed control at 200 ppm is at least 60%. Moreover, the inhibition of growth at 200 ppm in the data set with Septoria tritici was at least 60%. Moreover, the inhibition of growth at 200 ppm in the data set on Fusarium culmorum was at least 60%. Moreover, the inhibition of growth at 20 ppm in the data set with Pythium ultimum is at least 60%.

For `C#Cc1cnc2ccc(OC(SC)C(=O)NC(C)(C)C=NOCC)cc2c1` (single isomer, unassigned) [Compound No. 119, N-(2-Ethoxyimino-1,1-dimethyl-ethyl)-2-(3-ethynyl-quinolin-6-yloxy)-2-methylsulfanyl-acetamide], the pest or weed control at 200 ppm (in the data set on Plasmopara viticola; with Phytophthora infestans; in data set [1]; in the data set on Pyricularia oryzae; in data set [2]; with Septoria nodorum) was at least 60% in each case. In the data set on Septoria tritici, the inhibition of growth at 200 ppm was at least 60%. In addition, the inhibition of growth at 20 ppm with Pythium ultimum was at least 60%.

Turning to `CON=CC(C)(C#N)NC(=O)C(Oc1ccc2ncc(I)cc2c1)SC` (stereo not shown) [Compound No. 57, N-(1-Cyano-2-methoxyimino-1-methyl-ethyl)-2-(3-iodo-quinolin-6-yloxy)-2-methylsulfanyl-acetamide], the melting point is 59 to 64 °C. For the same molecule, the pest or weed control at 200 ppm with Plasmopara viticola was at least 60%. Moreover, in the data set with Phytophthora infestans, the pest or weed control at 200 ppm was at least 60%. Also, the pest or weed control at 200 ppm in data set [1] is at least 60%. Besides, the pest or weed control at 200 ppm in data set [2] is at least 60%. The pest or weed control at 200 ppm in the data set on Septoria nodorum is at least 60%. The inhibition of growth at 200 ppm in the data set on Septoria tritici was at least 60%. The inhibition of growth at 200 ppm in the data set on Fusarium culmorum is at least 60%. In the data set with Pythium ultimum, the inhibition of growth at 20 ppm is at least 60%.

`CON=CC(C)(C#N)NC(=O)C(Oc1cc(C)c2ncc(I)cc2c1)SC` (stereo not shown) [Compound No. 55, N-(1-Cyano-2-methoxyimino-1-methyl-ethyl)-2-(3-iodo-8-methyl-quinolin-6-yloxy)-2-methylsulfanyl-acetamide] showed a melting point of 166 to 168 °C. For the same molecule, the pest or weed control at 200 ppm with Plasmopara viticola was at least 60%. Further, in the data set on Phytophthora infestans, the pest or weed control at 200 ppm is at least 60%. Further, the pest or weed control at 200 ppm in data set [1] is at least 60%. The pest or weed control at 200 ppm with Botrytis cinerea is at least 60%. In data set [2], the pest or weed control at 200 ppm was at least 60%. Also, the pest or weed control at 200 ppm with Septoria nodorum was at least 60%. The inhibition of growth at 200 ppm with Fusarium culmorum was at least 60%. In addition, in the data set on Pythium ultimum, the inhibition of growth at 20 ppm was at least 60%.

In turn, `C#Cc1cnc2c(C)cc(OC(OC)C(=O)NC(C)(C)C=NOC)cc2c1` (stereo not shown) [Compound No. 77, 2-(3-Ethynyl-8-methyl-quinolin-6-yloxy)-2-methoxy-N-(2-methoxyimino-1,1-dimethyl-ethyl)-acetamide] returned a melting point of 138 to 140 °C. Moreover, in the data set with Plasmopara viticola, the pest or weed control at 200 ppm is at least 60%. The pest or weed control at 200 ppm with Phytophthora infestans was at least 60%. In data set [1], the pest or weed control at 200 ppm is at least 60%. The pest or weed control at 200 ppm in data set [2] is at least 60%. Moreover, the pest or weed control at 200 ppm in the data set with Septoria nodorum was at least 60%. The inhibition of growth at 200 ppm in the data set on Septoria tritici is at least 60%. Further, the inhibition of growth at 200 ppm in the data set with Fusarium culmorum is at least 60%. In addition, in the data set with Pythium ultimum, the inhibition of growth at 20 ppm was at least 60%.

As for `C#Cc1cnc2c(C)cc(OC(SC)C(=O)NC(C)(C#N)C=NOC)cc2c1` (stereo not shown) [Compound No. 56, N-(1-Cyano-2-methoxyimino-1-methyl-ethyl)-2-(3-ethynyl-8-methyl-quinolin-6-yloxy)-2-methylsulfanyl-acetamide], the melting point was 172 to 174 °C. Also, in the data set with Plasmopara viticola, the pest or weed control at 200 ppm was at least 60%. Further, the pest or weed control at 200 ppm in the data set with Phytophthora infestans was at least 60%. Besides, the pest or weed control at 200 ppm in data set [1] was at least 60%. In the data set with Botrytis cinerea, the pest or weed control at 200 ppm is at least 60%. Further, the pest or weed control at 200 ppm in [2] was at least 60%. For the same molecule, the pest or weed control at 200 ppm with Septoria nodorum is at least 60%. Besides, the inhibition of growth at 200 ppm in the data set with Septoria tritici is at least 60%. Moreover, the inhibition of growth at 20 ppm in the data set with Pythium ultimum is at least 60%.

`CON=CC(C)(C)NC(=O)C(OC)Oc1ccc2ncc(I)cc2c1` (stereo not shown) [Compound No. 72, 2-(3-Iodo-quinolin-6-yloxy)-2-methoxy-N-(2-methoxyimino-1,1-dimethyl-ethyl)-acetamide] had a melting point of 101 to 103 °C. In addition, the pest or weed control at 200 ppm in the data set on Plasmopara viticola is at least 60%. In the data set on Phytophthora infestans, the pest or weed control at 200 ppm was at least 60%. Further, the pest or weed control at 200 ppm in data set [1] was at least 60%. Besides, the pest or weed control at 200 ppm with Botrytis cinerea was at least 60%. The pest or weed control at 200 ppm in data set [2] is at least 60%. Moreover, in the data set with Septoria nodorum, the pest or weed control at 200 ppm is at least 60%. The inhibition of growth at 200 ppm in the data set with Septoria tritici is at least 60%. The inhibition of growth at 200 ppm in the data set with Fusarium culmorum is at least 60%. For the same molecule, the inhibition of growth at 20 ppm in the data set with Pythium ultimum was at least 60%.

In turn, `CON=CC(C)(C)NC(=O)C(OC)Oc1cc(C)c2ncc(Br)cc2c1` (stereo not shown) [Compound No. 71, 2-(3-Bromo-8-methyl-quinolin-6-yloxy)-2-methoxy-N-(2-methoxyimino-1,1-dimethyl-ethyl)-acetamide] gave a melting point of 130 to 132 °C. In the data set on Plasmopara viticola, the pest or weed control at 200 ppm was at least 60%. Further, the pest or weed control at 200 ppm in data set [1] was at least 60%. In addition, the pest or weed control at 200 ppm in the data set on Botrytis cinerea is at least 60%. The inhibition of growth at 200 ppm in the data set with Septoria tritici is at least 60%. For the same molecule, the inhibition of growth at 200 ppm in the data set with Fusarium culmorum was at least 60%.
